Measured values published in ChEMBL document CHEMBL1135431, “1-[2-[(5-Cyanopyridin-2-yl)amino]ethylamino]acetyl-2-(S)-pyrrolidinecarbonitrile: a potent, selective, and orally bioavailable dipeptidyl peptidase IV inhibitor with antihyperglycemic properties” (J Med Chem, 2002).

Tests used:
Dipeptidyl peptidase 4 = Dipeptidyl peptidase 4 (Rattus norvegicus, UniProt P14740); assay: In vitro inhibitory activity against Dipeptidyl peptidase IV (DPP-IV) extracted from rat plasma; format: cell-free
[1] = Cmax after an oral dose of 10 umol/Kg in male cynomolgus monkeys; format: ADME, organism-based, Macaca fascicularis; design: dose 10 umol/Kg, route oral; conditions: cynomolgus monkey, in vivo
Monkey [2] = assay: In vivo ability to reduce the peak plasma glucose levels in monkey compared to control ( 88 +/- 3 mg/dL) during an oral glucose tolerance test (OGTT); format: functional, Cercopithecidae
[3] = Absolute bioavailability in maleSprague-Dawley rats; format: ADME, organism-based; conditions: male, Sprague-Dawley, rat, in vivo
[4] = Half-life (t1/2) after an oral dose of 1 uM/Kg in monkey; format: ADME, organism-based; conditions: simiiformes, in vivo
[5] = Clearance from plasma in male Sprague-Dawley rats; format: ADME, organism-based; conditions: rat
[6] = Steady state volume of distribution in male Sprague-Dawley rats; format: ADME, organism-based; conditions: rat, in vivo
[7] = Absolute bioavailability in male cynomolgus monkeys; format: ADME, organism-based, Macaca fascicularis; conditions: cynomolgus monkey, in vivo
Monkey [8] = assay: In vivo ability to reduce the plasma glucose levels ( in 0-90 minutes glucose AUC) in monkey compared to control during an oral glucose tolerance test (PGTT); format: functional, Cercopithecidae
[9] = Clearance from plasma in male cynomolgus monkeys; format: ADME, organism-based, Macaca fascicularis; conditions: cynomolgus monkey
[10] = Cmax after an oral dose of 10 umol/Kg in male Sprague-Dawley rats; format: ADME, organism-based; design: dose 10 umol/Kg, route oral; conditions: rat, in vivo
[11] = Half-life (t1/2) after an oral dose of 100 mg in human; format: ADME, organism-based; conditions: in vivo
[12] = Steady state volume of distribution male cynomolgus monkeys; format: ADME, organism-based, Macaca fascicularis; conditions: cynomolgus monkey, in vivo

Dipeptidyl peptidase 4, sequence (P14740 whole entry): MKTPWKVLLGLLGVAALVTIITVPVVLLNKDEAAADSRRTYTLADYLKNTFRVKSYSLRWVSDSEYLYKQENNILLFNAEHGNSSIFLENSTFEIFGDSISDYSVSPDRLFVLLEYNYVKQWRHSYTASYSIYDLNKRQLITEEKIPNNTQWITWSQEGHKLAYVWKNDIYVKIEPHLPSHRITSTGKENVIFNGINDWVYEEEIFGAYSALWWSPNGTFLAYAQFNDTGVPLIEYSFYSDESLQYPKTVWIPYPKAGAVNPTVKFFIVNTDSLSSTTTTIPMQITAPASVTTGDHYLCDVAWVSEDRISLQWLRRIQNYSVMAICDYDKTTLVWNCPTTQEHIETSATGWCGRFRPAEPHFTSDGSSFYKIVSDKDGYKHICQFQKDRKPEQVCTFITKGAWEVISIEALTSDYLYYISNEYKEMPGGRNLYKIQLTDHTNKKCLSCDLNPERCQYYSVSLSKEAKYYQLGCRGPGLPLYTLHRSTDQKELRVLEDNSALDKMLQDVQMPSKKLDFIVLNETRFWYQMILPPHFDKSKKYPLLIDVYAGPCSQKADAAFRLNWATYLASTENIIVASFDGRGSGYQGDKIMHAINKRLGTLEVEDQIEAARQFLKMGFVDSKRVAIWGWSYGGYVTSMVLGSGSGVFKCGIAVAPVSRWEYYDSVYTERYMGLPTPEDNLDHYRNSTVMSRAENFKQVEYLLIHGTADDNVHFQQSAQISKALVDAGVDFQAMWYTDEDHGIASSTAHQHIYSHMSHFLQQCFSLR

**Q.** For `N#C[C@@H]1CCCN1C(=O)[C@@H](N)C1CCCCC1`, which IC50 (Dipeptidyl peptidase 4) is on record?
**A.** 2.8 nM

**Q.** Which Cmax [1] does the source give for `N#Cc1ccc(NCCNCC(=O)N2CCC[C@H]2C#N)nc1` here?
**A.** 7.56 µM

**Q.** And the Reduction (Monkey [2])?
**A.** 98

**Q.** And the bioavailability [3]?
**A.** ≥ 74%

**Q.** What about the half-life [4] of the same compound?
**A.** 51 min

**Q.** And the clearance [5]?
**A.** 28 mL/min/kg

**Q.** And the Vd [6]?
**A.** 0.67 L/kg

**Q.** What about the bioavailability [7] of the same compound?
**A.** ≥ 74%

**Q.** And the Reduction (Monkey [8])?
**A.** 38%

**Q.** And the clearance [9]?
**A.** 21.9 mL/min/kg

**Q.** And the Cmax [10]?
**A.** 3.65 µM

**Q.** What about the half-life [11] of the same compound?
**A.** 51 min

**Q.** And the Vd [12]?
**A.** 0.841 L/kg
